Measured values published in patent US20230073755A1, “USE OF IGF1 IN COMBINATION WITH IGFEC24 IN PREPARATION OF MEDICINE FOR PROMOTING TISSUE REPAIR AND REGENERATION” (Chongqing University, priority 2020, published 2023).

Legend:
Format in all cases: in vivo
[1] = test system: neuronal cells; test: Neuroproliferation and neural differentiation (Edu / DCX, hippocampal dentate gyrus), 13-month-old C57 mice
Procedure: (§1) Female 13-month-old mice were divided into 2 groups, PBS group and IGF1-24 group, with 6 mice in each group, and the mice in each group were distinguished by ear tags for subsequent protein injection according to the different body weights of the mice. The mice in each group were injected with PBS and IGF1-24 for 7 consecutive days, and the recombinant protein IGF1-24 was injected at 100 μg/kg. After seven days of protein injection, Edu solution at a concentration of […] was injected intraperitoneally for seven consecutive days, so that the final total dose of each mouse reached 50 mg/kg. […]
Remove frozen sections from −20° C. and restore to room temperature; wash 3 times 10 min/time with PBS; permeabilize sections in 0.5% Triton for 30 min; wash 3 times 10 min/time with PBS; draw circles around the tissue with an immunohistochemistry pen and add 5% BSA dropwise for 1 h; aspirate 5% BSA and incubate at 4° C. with double cortin DCX primary antibody (1:500) dropwise overnight; PBS wash 3 times for 10 min/time; incubate FITC secondary antibody for 1 h; PBS wash 3 times for 10 min/time; incubate Edu dye for 1 h; PBS wash 3 times for 10 min/time; incubate DAPI for 10 min; PBS wash 3 times for 10 min/time; observe fluorescence under fluorescence microscope. […]

[2] = test system: cardiomyocytes; test: Cardiomyocyte proliferation effect assay (Edu), 13-month-old C57 mice; conditions: aged (13-month-old) female mice; IGF1-24 100 μg/kg for 7 days; PBS group 0.5%; FIG. 3
Procedure: as §1

[3] = test system: cardiomyocytes; test: Cardiomyocyte proliferation effect assay (Edu / cTnI immunofluorescence of heart tissue), adult female SD rats; conditions: tail vein injection 7 consecutive days, IGF1-24 100 μg/kg or molar equivalents, FIG. 1-2
Procedure: In certain embodiments, adult female SD rats were divided into five groups: PBS group, IGF1 group, IGF1Ec group, IGF1-24 group, and IGF1+IGF1Ec24 peptide group, with three rats in each group. The rats in each group were distinguished by ear clipping for subsequent protein injection according to the different body weights of the rats.
The rats in each group were injected with PBS, IGF1, IGF1Ec24 peptide, IGF1Ec and IGF1-24 for 7 consecutive days. Recombinant protein IGF1-24 was injected at 100 μg/kg, and the injection of the remaining proteins in each group was converted according to the molar amount of IGF1-24 injection as follows: 90 μg/kg for IGF1, 8.9 μg/kg for IGF1Ec24 peptide, 104 μg/kg for IGF1Ec.
Before protein injection, the rats were first weighed with a bench scale, and their body weight and the amount of protein injected were recorded and converted; then the rats were fixed with a rat fixator and their tails were exposed, and their tails were soaked in hot water for 1-2 min to stretch the tail vessels and facilitate the search for blood vessels; then the tails were wiped with alcohol cotton balls; after the tail vein was identified, the needle was inserted into the vessel at a 45° angle to the tail vein and the drug was slowly pushed in; the needle before pressing the wound with cotton to stop the bleeding, and then pull out the needle. […]

## IGF1-24: 97 amino acids: amino-terminal 70 identical to IGF1, carboxyl-terminal 24 identical to IGFEc24 peptide, joined by three Gly linkers (SEQ ID NO: 4)
[1]; PBS group 0.68%, FIG. 7
  immature neuronal cells (neural differentiation assay): 1.01%
[1]; hippocampal dentate gyrus, PBS group 0.24%, FIG. 5-6
  proliferation of neuronal cells: 0.47%
[2]
  number of Edu-positive cardiomyocytes: 1.5%
[3]
  number of Edu-positive cardiomyocytes: 2.6%
